From paper PMC7504814, “Coumarin and Moracin Derivatives from Mulberry Leaves (Morus alba L.) with Soluble Epoxide Hydrolase Inhibitory Activity” (Molecules, 2020)
Read-outs that look alike come from different tables or passages of the source.

What was measured:
sEH [1] = target: T1, sEH (Homo sapiens, UniProt P34913); test: sEH kinetic assay (Lineweaver-Burk and Dixon plots); assay type: biochemical; details: PHOME 5–80 µM; for Type of inhibition: Lineweaver-Burk plots; for Ki: calculated from Dixon plots
T1 construct: purchased Cayman Chemical Company 10011669
T1 sequence (P34913 1-555): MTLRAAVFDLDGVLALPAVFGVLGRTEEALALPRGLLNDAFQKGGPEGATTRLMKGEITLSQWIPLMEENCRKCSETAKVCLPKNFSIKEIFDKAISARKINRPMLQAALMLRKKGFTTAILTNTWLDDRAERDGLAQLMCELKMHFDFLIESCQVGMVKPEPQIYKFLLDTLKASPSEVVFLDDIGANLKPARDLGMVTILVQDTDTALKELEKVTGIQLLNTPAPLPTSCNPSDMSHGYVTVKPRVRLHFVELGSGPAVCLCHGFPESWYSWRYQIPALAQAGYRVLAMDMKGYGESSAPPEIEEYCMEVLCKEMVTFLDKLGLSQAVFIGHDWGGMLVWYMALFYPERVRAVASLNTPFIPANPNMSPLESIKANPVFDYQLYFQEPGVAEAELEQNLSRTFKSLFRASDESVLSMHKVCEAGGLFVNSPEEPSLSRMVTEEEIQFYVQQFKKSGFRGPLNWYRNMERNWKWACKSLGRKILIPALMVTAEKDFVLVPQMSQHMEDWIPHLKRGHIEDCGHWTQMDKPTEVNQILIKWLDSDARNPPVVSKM

sEH [2] = target: T1, sEH; test: sEH inhibition assay with PHOME fluorescent substrate; assay type: biochemical; details: for inhibition at 100 µM: compound at 100 µM, read-out: Inhibition of Compounds on sEH, 100 µM(%)
[3] = PHOME substrate, mean ± SD (n = 3), read-out: Inhibition of Compounds on sEH, IC50
[4] = PHOME substrate, mean ± SD (n = 3)

SMILES | Type of inhibition (sEH [1]) | Ki (sEH [1]) [nM] | IC50 (sEH [2]; [3]) [nM] | inhibition at 100 µM (sEH [2]; [4]) [%] | IC50 (sEH [2]) [nM]
COc1cc2ccc(=O)oc2cc1OC1OC(CO)C(O)C(O)C1O (stereo not drawn) [Compound 3] | competitive | 5400 | 15900 ± 400 | 100 | –
O=c1ccc2cc(O)c(O)cc2o1 [Compound 1, aesculetin] | – | 1200 | – | 100 | 6900 ± 500
Oc1cc(O)cc(-c2cc3ccc(O)cc3o2)c1 [Compound 6, moracin M] | competitive | 1500 | 9900 ± 2200 | 100 | –

The remaining molecules from weak to strong by Ki (sEH [1]), led by results:

Type of inhibition (sEH [1]) | Ki (sEH [1]) [nM] | IC50 (sEH [2]; [3]) [nM] | inhibition at 100 µM (sEH [2]; [4]) [%] | SMILES | IC50 (sEH [2]) [nM]
mixed types of inhibitors | 5800 | 7700 ± 100 | 100 | OCC1OC(Oc2cc(O)cc(-c3cc4ccc(O)cc4o3)c2)C(O)C(O)C1O (stereo not drawn) [Compound 7, moracin M 3’-O-β-glucopyranoside] | –
mixed types of inhibitors | 2100 | 1200 ± 100 | 100 | COc1cc2cc(-c3cc(O)cc(O)c3)oc2cc1O [Compound 5, moracin J] | –
competitive | 1000 | 1100 ± 100 | 100 | COc1cc(O)cc(-c2cc3cc(O)c(OC)cc3o2)c1 [Compound 4, moracin B] | –
competitive | 300 | 200 ± 100 | 100 | COc1cc2ccc(=O)oc2cc1O [Compound 2, scopoletin] | –
